Measurements reported in patent publication US20150037257A1, “COMPOSITIONS AND METHODS FOR HIGH-THROUGHPUT SCREENING IN SKIN FIBROBLASTS WITH AN ALPHA-SYNUCLEIN TRIPLICATION” (priority 2011, published 2015).

Tests used:
Format in all cases: cell-based, human
control fibroblasts [1] = experiment: Dose-response test of control fibroblasts with PQ (cell death); settings: 300 uM PQ, 48 hrs
Experimental: (§1) Cell viability was assessed using the CytoTox-ONE Homogeneous Membrane integrity Assay kit (Cat. No 07890, Promega, Madison, Wis.), which is a fluorescent measure of lactate dehydrogenase (LDH) released from cells with a damaged membrane by conversion of resazurin into resorufin. The assay was performed in a 96-well format according to the manufacturers' instructions. Briefly, 10,000 cells/well of control cells and 12,500 cells/well of SNCA-Tri fibroblasts were used for paraquat (PQ) exposure experiments; 12,500 cells/well were used in siRNA knockout experiments. Cell number was measured using WST-1 proliferation reagent (Roche, Indianapolis, Ind.) in a parallel plate.
(§2) Cells were exposed to freshly prepared PQ (N,N′-dimethyl-4,4′-bipyridinium dichloride) (Sigma, M2254) at 300 uM final concentration in culture media for 48 hours without media change prior to analysis.

control fibroblasts [2] = experiment: Cell viability: LDH release (CytoTox-ONE) after paraquat exposure; settings: controls, 300 uM PQ, 48 hrs
Experimental: as §1, §2

SNCA-Tri fibroblasts [3] = experiment: Cell viability: LDH release (CytoTox-ONE) after paraquat exposure / siRNA knockdown; settings: 300 uM PQ, 48 hrs
Experimental: as §1, §2
(§3) The sequence of SNCA1 siRNA were used after the method of Fountaine et al, 2008. Custom siRNA (Dharmacon, Lafayette, Colo.) at a concentration of 75 nM (scrambled or α-syn targeted siRNA, SNCA1) was transfected at 90% cell confluency using […] Lipofectamine™ 2000 (Invitrogen) according to the manufacturer's instruction. Transfection efficiency was tested to be >90% with siGLO Cyclophilin B control siRNA (Dharmacon) in control fibroblasts.

control fibroblasts [4] = experiment: Cellular ATP levels (ATPlite) after paraquat exposure; settings: controls, 300 uM PQ, 48 hrs
Experimental: (§4) Cellular adenosine triphosphate (ATP) levels were measured using the ATPlite kit (Cat. No. 6016943, Perkin Elmer, Waltham, Mass.) based on the reaction of ATP with added lucifcrase and D-luciferin, according to the manufacturer's instruction. ATP synthesis assays were performed on digitonin-treated fibroblasts. Briefly, for paraquat (PQ) exposure, cells were plated (6,000 cells/well in control cells and 7,500 cells/well in SNCA-Tri cells) for 24 hours prior to exposure to PQ.
as §2

SNCA-Tri fibroblasts [5] = experiment: Cellular ATP levels (ATPlite) after paraquat exposure / siRNA knockdown; settings: 300 uM PQ, 48 hrs
Experimental: as §4, §2, §3

control fibroblasts [6] = experiment: Mitochondrial membrane potential (TMRM) after paraquat exposure; settings: controls, 300 uM PQ, 48 hrs
Experimental: (§5) Fibroblasts were plated in 96-well plates (6,000 cells/well in the control and 7,500 cells/well in SNCA-Tri cells) and were used for paraquat (PQ) exposure experiments. After 24 hours, cells were changed to galactose medium and cultured for another 24 hours. The mitochondrial membrane potential was measured using the fluorescent dye tetramethylrhodamine methyl ester (TMRM) (Invitrogen) at the final concentration of 150 nM. Cells were incubated for 5 minutes at 37° C. and then washed with phosphate buffered saline (PBS). To remove the plasma membrane contribution from the TMRM fluorescence, each assay was performed in parallel with 10 uM carbonyl cyanide 3-chlorophenylhydrazone (CCCP) (Sigma, St Louis, Mo.), which collapses the mitochondrial membrane potential. All data were expressed as the total TMRM fluorescence minus the CCCP-treated TMRM fluorescence. Cell number was measured using WST-1 proliferation reagent in a parallel plate, according to the manufacturer's instruction. All measurements were performed on a TECAN GENios.
as §2

SNCA-Tri fibroblasts [7] = experiment: Mitochondrial membrane potential (TMRM) after paraquat exposure / siRNA knockdown; settings: 300 uM PQ, 48 hrs
Experimental: as §5, §2, §3

[8] = tested on: α-syn mRNA expression in SNCA-Tri fibroblasts; experiment: α-syn mRNA expression by qPCR after paraquat exposure
Experimental: as §2
(§6) Total RNA was extracted from fibroblasts using TRIzol® (Invitrogen). cDNA from 0.5 ug total RNA was synthesized by reverse transcriptase (iScript cDNA synthesis kit, BioRad, Hercules, Calif.). Primer sequences of SNCA are SNCA-F: AGTTGTGGCTGCTGCTGAG (SEQ ID NO:1) and SNCA-R: […] (SEQ ID NO:2) and of beta-actin are HuActin-F: […] (SEQ ID NO:3) and HuActin-R: GCATTTGCGGTGGACGAT (SEQ ID NO:4). The PCR products of SNCA and beta-actin (as internal control) were amplified using the SYBR Green PCR Master Mix (Applied Biosystems, Carlsbad, Calif.). Amplification of the PCR products was quantitatively measured by the ABI 7000 Sequence Detection System (Applied Biosystems). 2^−ΔΔCt method was used in all quantitative PCR analyses.

[9] = tested on: α-syn mRNA expression in control fibroblasts; experiment: as above; settings: controls, vs naive expression
Experimental: as §2, §6

What does the source list for `C[n+]1ccc(-c2cc[n+](C)cc2)cc1.[Cl-].[Cl-]` [PQ, N,N′-dimethyl-4,4′-bipyridinium dichloride]?
cell death (control fibroblasts [1]): about 25%; LDH release, % change untreated vs PQ exposed (control fibroblasts [2]): 27%; LDH release change, fold difference SNCA-Tri vs controls (SNCA-Tri fibroblasts [3]; 42% vs 27%): 1.6 fold; increase of LDH release in SNCA-Tri compared to controls after PQ exposure (SNCA-Tri fibroblasts [3]; SNCA-Tri vs controls): 46%; LDH release, % change (increase) untreated vs PQ exposed (SNCA-Tri fibroblasts [3]; SNCA-Tri): 42%; Cellular ATP decrease, untreated vs PQ exposed (control fibroblasts [4]): 33%; Cellular ATP change, fold change SNCA-Tri vs controls (SNCA-Tri fibroblasts [5]; 56% vs 33%): 1.7 fold; decrease of cellular ATP in SNCA-Tri compared to controls after PQ exposure (SNCA-Tri fibroblasts [5]; SNCA-Tri vs controls): 59%; Cellular ATP decrease, untreated vs PQ exposed (SNCA-Tri fibroblasts [5]; SNCA-Tri): 56%; Mitochondrial membrane potential decrease, untreated vs PQ exposed (control fibroblasts [6]): 40%; Mitochondrial membrane potential change, fold change SNCA-Tri vs controls (SNCA-Tri fibroblasts [7]; 61% vs 40%): 1.5 fold; reduction of mitochondrial membrane potential in SNCA-Tri compared to controls after PQ exposure (SNCA-Tri fibroblasts [7]; SNCA-Tri vs controls): 51%; Mitochondrial membrane potential decrease, untreated vs PQ exposed (SNCA-Tri fibroblasts [7]; SNCA-Tri): 61%; increase of α-syn mRNA expression after PQ exposure ([8]; SNCA-Tri, vs naive expression levels): 7.5 fold; α-syn mRNA, fold difference SNCA-Tri over control fibroblasts after PQ treatment ([8]; after PQ treatment): 3.2 fold; increase of α-syn mRNA expression after PQ exposure [9]: 2.6 fold
